Data as given in patent US20100267561A1, “HERBICIDAL PYRIDAZINONE DERIVATIVES” (priority 2007, published 2010).

Tests used:
Assay type in all cases: in vivo
[1] = tested on: canarygrass (Phalaris minor); assay: Test B postemergence plant response; conditions: for Canarygrass plant response rating: 8 g ai/ha, postemergence, 0-100 scale; for Plant response rating, Canarygrass: Postemergence
Procedure, shortened: (§1)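 Scoring: 0 means no effect and 100 complete control, judged by eye against controls after 13–15 days under greenhouse conditions following postemergence application at 2–18 cm plant height.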

[2] = tested on: chickweed (Stellaria media); assay: Test B postemergence plant response; conditions: for Chickweed plant response rating: 8 g ai/ha, postemergence, 0-100 scale; for Plant response rating, Chickweed: Postemergence
Procedure, shortened: as §1

[3] = tested on: windgrass (Apera spica-venti); assay: Test B postemergence plant response; conditions: for Windgrass plant response rating: 8 g ai/ha, postemergence, 0-100 scale; for Plant response rating, Windgrass: Postemergence
Procedure, shortened: as §1

[4] = tested on: winter barley (Hordeum vulgare); assay: Test B postemergence plant response; conditions: for Barley plant response rating: 8 g ai/ha, postemergence, 0-100 scale; for Plant response rating, Barley: Postemergence
Procedure, shortened: as §1

[5] = tested on: Italian ryegrass (Lolium multiflorum); assay: Test C pre-/postemergence plant response
Procedure, shortened: (§2)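 Visual rating vs untreated controls, 0 (no effect) to 100 (complete control), after 15–25 days in a controlled growth environment. Pre- and postemergence treatments; post plants at 1- to 4-leaf stage, 2–18 cm. Formulation: non-phytotoxic solvent mix plus surfactant.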

[6] = tested on: annual bluegrass (Poa annua); assay: Test C pre-/postemergence plant response
Procedure, shortened: as §2

[7] = tested on: blackgrass (Alopecurus myosuroides); assay: Test C pre-/postemergence plant response
Procedure, shortened: as §2

[8] = tested on: canarygrass (Phalaris minor); assay: Test C pre-/postemergence plant response
Procedure, shortened: as §2

[9] = tested on: downy bromegrass (Bromus tectorum); assay: Test C pre-/postemergence plant response
Procedure, shortened: as §2

[10] = tested on: green foxtail (Setaria viridis); assay: Test C pre-/postemergence plant response
Procedure, shortened: as §2

[11] = tested on: pigweed (Amaranthus retroflexus); assay: Test C pre-/postemergence plant response
Procedure, shortened: as §2

[12] = tested on: spring barley (Hordeum vulgare); assay: Test C pre-/postemergence plant response
Procedure, shortened: as §2

[13] = tested on: wild mustard (Sinapis arvensis); assay: Test C pre-/postemergence plant response
Procedure, shortened: as §2

wild oat (Avena fatua) = assay: Test C pre-/postemergence plant response
Procedure, shortened: as §2

[14] = tested on: windgrass (Apera spica-venti); assay: Test C pre-/postemergence plant response
Procedure, shortened: as §2

[15] = tested on: winter barley (Hordeum vulgare); assay: Test C pre-/postemergence plant response
Procedure, shortened: as §2

[16] = tested on: winter wheat (Triticum aestivum); assay: Test C pre-/postemergence plant response
Procedure, shortened: as §2

[17] = 31 g ai/ha, scale 0 to 100, 0 no effect, 100 complete control
[18] = 16 g ai/ha, scale 0 to 100, 0 no effect, 100 complete control
[19] = Preemergence, 8 g ai/ha, scale 0 to 100 (0 no effect, 100 complete control)
[20] = Preemergence, 16 g ai/ha, scale 0 to 100 (0 no effect, 100 complete control)
[21] = Preemergence, 31 g ai/ha, scale 0 to 100 (0 no effect, 100 complete control)
[22] = Preemergence, 62 g ai/ha, scale 0 to 100, 0 no effect, 100 complete control
[23] = 62 g ai/ha, scale 0 to 100, 0 no effect, 100 complete control
[24] = Postemergence, 8 g ai/ha, scale 0 to 100, 0 no effect, 100 complete control
[25] = Postemergence, 16 g ai/ha, scale 0 to 100, 0 no effect, 100 complete control
[26] = Postemergence, 31 g ai/ha, scale 0 to 100, 0 no effect, 100 complete control
[27] = Postemergence, 62 g ai/ha, scale 0 to 100, 0 no effect, 100 complete control

CCc1cc(-c2ccc(Cl)cc2)nn1-c1c(O)cnn(C)c1=O [Compound 21]
Canarygrass plant response rating [1]: 10
Plant response rating, Canarygrass ([1]; 16 g ai/ha, scale 0 to 100): 90
Plant response rating, Canarygrass ([1]; 62 g ai/ha, scale 0 to 100): 100
Chickweed plant response rating [2]: 0
Plant response rating, Chickweed ([2]; 16 g ai/ha, scale 0 to 100): 0
Plant response rating, Chickweed [2, 17]: 0
Plant response rating, Chickweed ([2]; 62 g ai/ha, scale 0 to 100): 0
Windgrass plant response rating [3]: 50
Plant response rating, Windgrass ([3]; 16 g ai/ha, scale 0 to 100): 98
Plant response rating, Windgrass [3, 17]: 100
Plant response rating, Windgrass ([3]; 62 g ai/ha, scale 0 to 100): 100
Barley plant response rating [4]: 0
Plant response rating, Barley [4, 18]: 60
Plant response rating, Barley ([4]; 62 g ai/ha, scale 0 to 100): 100
Plant response rating, Ryegrass, Italian [5, 19]: 98
Plant response rating, Ryegrass, Italian [5, 20]: 100
Plant response rating, Ryegrass, Italian [5, 21]: 100
Plant response rating, Ryegrass, Italian [5, 22]: 100
Plant response rating, Bluegrass [6, 19]: 0
Plant response rating, Bluegrass [6, 20]: 0
Plant response rating, Blackgrass [7, 19]: 95
Plant response rating, Blackgrass [7, 20]: 98
Plant response rating, Blackgrass [7, 21]: 100
Plant response rating, Blackgrass [7, 22]: 100
Plant response rating, Canarygrass [8, 19]: 65
Plant response rating, Canarygrass [8, 20]: 75
Plant response rating, Canarygrass [8, 21]: 90
Plant response rating, Canarygrass [8, 22]: 100
Plant response rating, Bromegrass, Downy [9, 19]: 0
Plant response rating, Bromegrass, Downy [9, 20]: 40
Plant response rating, Bromegrass, Downy [9, 21]: 75
Plant response rating, Bromegrass, Downy [9, 22]: 95
Plant response rating, Foxtail, Green [10, 19]: 50
Plant response rating, Foxtail, Green [10, 20]: 100
Plant response rating, Foxtail, Green [10, 21]: 100
Plant response rating, Foxtail, Green [10, 22]: 100
Plant response rating, Pigweed [11, 19]: 0
Plant response rating, Pigweed [11, 20]: 0
Plant response rating, Pigweed [11, 21]: 0
Plant response rating, Pigweed [11, 22]: 0
Plant response rating, Barley, Spring [12, 19]: 20
Plant response rating, Barley, Spring [12, 20]: 35
Plant response rating, Barley, Spring [12, 21]: 60
Plant response rating, Barley, Spring [12, 22]: 75
Plant response rating, Mustard, Wild [13, 19]: 0
Plant response rating, Mustard, Wild [13, 20]: 0
Plant response rating, Mustard, Wild [13, 21]: 0
Plant response rating, Mustard, Wild [13, 22]: 0
Plant response rating, Oat, Wild (wild oat (Avena fatua); [19]): 65
Plant response rating, Oat, Wild (wild oat (Avena fatua); [20]): 75
Plant response rating, Oat, Wild (wild oat (Avena fatua); [21]): 95
Plant response rating, Oat, Wild (wild oat (Avena fatua); [22]): 100
Plant response rating, Windgrass [14, 19]: 100
Plant response rating, Windgrass [14, 20]: 100
Plant response rating, Windgrass [14, 21]: 100
Plant response rating, Windgrass [14, 22]: 100
Plant response rating, Barley, Winter [15, 19]: 20
Plant response rating, Barley, Winter [15, 20]: 40
Plant response rating, Barley, Winter [15, 21]: 50
Plant response rating, Barley, Winter [15, 22]: 75
Plant response rating, Wheat, Winter [16, 19]: 0
Plant response rating, Wheat, Winter [16, 20]: 50
Plant response rating, Wheat, Winter [16, 21]: 60
Plant response rating, Wheat, Winter [16, 22]: 95

CCCc1cc(-c2ccc(Cl)cc2)nn1-c1c(O)cnn(C)c1=O [Compound 43]
Canarygrass plant response rating [1]: 30
Plant response rating, Canarygrass ([1]; 16 g ai/ha, scale 0 to 100): 50
Plant response rating, Canarygrass [1, 17]: 50
Plant response rating, Canarygrass [1, 23]: 95
Chickweed plant response rating [2]: 0
Plant response rating, Chickweed ([2]; 16 g ai/ha, scale 0 to 100): 0
Plant response rating, Chickweed [2, 17]: 0
Plant response rating, Chickweed [2, 23]: 0
Windgrass plant response rating [3]: 50
Plant response rating, Windgrass ([3]; 16 g ai/ha, scale 0 to 100): 70
Plant response rating, Windgrass [3, 23]: 100
Barley plant response rating [4]: 20
Plant response rating, Barley [4, 18]: 50
Plant response rating, Barley [4, 23]: 50
Plant response rating, Ryegrass, Italian [5, 24]: 75
Plant response rating, Ryegrass, Italian [5, 25]: 98
Plant response rating, Ryegrass, Italian [5, 26]: 100
Plant response rating, Ryegrass, Italian [5, 27]: 100
Plant response rating, Ryegrass, Italian [5, 19]: 60
Plant response rating, Ryegrass, Italian [5, 20]: 98
Plant response rating, Ryegrass, Italian [5, 21]: 98
Plant response rating, Ryegrass, Italian [5, 22]: 98
Plant response rating, Bluegrass [6, 24]: 0
Plant response rating, Bluegrass [6, 25]: 0
Plant response rating, Bluegrass [6, 26]: 0
Plant response rating, Bluegrass [6, 27]: 15
Plant response rating, Bluegrass [6, 19]: 0
Plant response rating, Bluegrass [6, 20]: 0
Plant response rating, Bluegrass [6, 22]: 25
Plant response rating, Blackgrass [7, 24]: 90
Plant response rating, Blackgrass [7, 25]: 98
Plant response rating, Blackgrass [7, 26]: 100
Plant response rating, Blackgrass [7, 27]: 100
Plant response rating, Blackgrass [7, 19]: 85
Plant response rating, Blackgrass [7, 20]: 90
Plant response rating, Blackgrass [7, 21]: 98
Plant response rating, Blackgrass [7, 22]: 100
Plant response rating, Canarygrass [8, 24]: 65
Plant response rating, Canarygrass [8, 25]: 75
Plant response rating, Canarygrass [8, 26]: 85
Plant response rating, Canarygrass [8, 27]: 95
Plant response rating, Canarygrass [8, 19]: 50
Plant response rating, Canarygrass [8, 20]: 65
Plant response rating, Canarygrass [8, 21]: 75
Plant response rating, Canarygrass [8, 22]: 95
Plant response rating, Bromegrass, Downy [9, 24]: 0
Plant response rating, Bromegrass, Downy [9, 25]: 0
Plant response rating, Bromegrass, Downy [9, 26]: 0
Plant response rating, Bromegrass, Downy [9, 27]: 75
Plant response rating, Bromegrass, Downy [9, 19]: 10
Plant response rating, Bromegrass, Downy [9, 20]: 25
Plant response rating, Bromegrass, Downy [9, 21]: 40
Plant response rating, Bromegrass, Downy [9, 22]: 75
Plant response rating, Foxtail, Green [10, 24]: 90
Plant response rating, Foxtail, Green [10, 25]: 95
Plant response rating, Foxtail, Green [10, 26]: 98
Plant response rating, Foxtail, Green [10, 27]: 98
Plant response rating, Foxtail, Green [10, 19]: 75
Plant response rating, Foxtail, Green [10, 20]: 100
Plant response rating, Foxtail, Green [10, 21]: 100
Plant response rating, Foxtail, Green [10, 22]: 100
Plant response rating, Pigweed [11, 24]: 0
Plant response rating, Pigweed [11, 25]: 0
Plant response rating, Pigweed [11, 26]: 0
Plant response rating, Pigweed [11, 27]: 0
Plant response rating, Pigweed [11, 19]: 0
Plant response rating, Pigweed [11, 20]: 0
Plant response rating, Pigweed [11, 21]: 0
Plant response rating, Pigweed [11, 22]: 20
Plant response rating, Barley, Spring [12, 24]: 20
Plant response rating, Barley, Spring [12, 25]: 35
Plant response rating, Barley, Spring [12, 26]: 50
Plant response rating, Barley, Spring [12, 27]: 90
Plant response rating, Barley, Spring [12, 19]: 0
Plant response rating, Barley, Spring [12, 20]: 20
Plant response rating, Barley, Spring [12, 21]: 35
Plant response rating, Barley, Spring [12, 22]: 60
Plant response rating, Mustard, Wild [13, 24]: 0
Plant response rating, Mustard, Wild [13, 25]: 0
Plant response rating, Mustard, Wild [13, 26]: 0
Plant response rating, Mustard, Wild [13, 27]: 25
Plant response rating, Mustard, Wild [13, 19]: 0
Plant response rating, Mustard, Wild [13, 20]: 0
Plant response rating, Mustard, Wild [13, 21]: 0
Plant response rating, Mustard, Wild [13, 22]: 0
Plant response rating, Oat, Wild (wild oat (Avena fatua); [24]): 100
Plant response rating, Oat, Wild (wild oat (Avena fatua); [25]): 100
Plant response rating, Oat, Wild (wild oat (Avena fatua); [26]): 100
Plant response rating, Oat, Wild (wild oat (Avena fatua); [27]): 100
Plant response rating, Oat, Wild (wild oat (Avena fatua); [19]): 35
Plant response rating, Oat, Wild (wild oat (Avena fatua); [20]): 70
Plant response rating, Oat, Wild (wild oat (Avena fatua); [21]): 80
Plant response rating, Oat, Wild (wild oat (Avena fatua); [22]): 98
Plant response rating, Windgrass [14, 24]: 30
Plant response rating, Windgrass [14, 25]: 60
Plant response rating, Windgrass [14, 26]: 60
Plant response rating, Windgrass [14, 27]: 60
Plant response rating, Windgrass [14, 20]: 25
Plant response rating, Windgrass [14, 21]: 80
Plant response rating, Windgrass [14, 22]: 100
Plant response rating, Barley, Winter [15, 24]: 5
Plant response rating, Barley, Winter [15, 25]: 15
Plant response rating, Barley, Winter [15, 26]: 40
Plant response rating, Barley, Winter [15, 27]: 80
Plant response rating, Barley, Winter [15, 19]: 0
Plant response rating, Barley, Winter [15, 20]: 20
Plant response rating, Barley, Winter [15, 21]: 50
Plant response rating, Barley, Winter [15, 22]: 65
Plant response rating, Wheat, Winter [16, 24]: 5
Plant response rating, Wheat, Winter [16, 25]: 25
Plant response rating, Wheat, Winter [16, 26]: 40
Plant response rating, Wheat, Winter [16, 27]: 65
Plant response rating, Wheat, Winter [16, 19]: 0
Plant response rating, Wheat, Winter [16, 20]: 0
Plant response rating, Wheat, Winter [16, 21]: 20
Plant response rating, Wheat, Winter [16, 22]: 70
